Results as given in patent US20110287982A1, “CELL CULTURE DEVICE” (priority 2008, published 2011).

Tested on: cardiac tissue generated from cardiomyocytes derived from human ESCs
Assay: Electrophysiological recordings of cardiac tissue (CardioSpot) on porous multi-electrode arrays
Format: cell-based
Settings: for repolarising potential (delay measured from the first signal): 30 nM E4031, control 140 ms
Protocol: Beating aggregates are maintained at room temperature in cryo-vials full of culture medium (Human cardiovascular progenitor cells develop from a KDR+embryonic-stem-cell-derived population. Yang L, et al., (2008). […] Culture Medium-StemPro 34 and 10 ng/mL VEGF CardioSpot made using primary or stem cell derived cardiomyocytes are placed onto the porous MEAs. Electrophysiological recordings were performed either through the supporting membrane or from under the membrane in order to get a direct contact of the tissues with recording electrodes. Control recording were performed using the culture medium as well a the solution used for reference molecules ([…], and lidocaine) Pharmacological experiments were carried out using reference compounds to characterise and validate the cardiac tissue generated from cardiomyocytes derived from human ESCs and engineered using the method of invention.

CCN(CC)CC(=O)Nc1c(C)cccc1C [lidocaine]
decrease of the amplitude of the electrophysiological signals (30 uM lidocaine, after 6 minutes): 50%
amplitude of the first signal (predominantly dependent of sodium channel opening) (lidocaine, within few minutes): dramatic decrease

Cc1cccc(CCN2CCC(C(=O)c3ccc(NS(C)(=O)=O)cc3)CC2)n1 [E4031]
repolarising potential (delay measured from the first signal) (after 5 min): 155 ms
repolarising potential (delay measured from the first signal) (after 15 min): 173 ms
